Experimental data from US9676782B2, “Substituted pyrazolo[1,5-a]pyrazines as negative allosteric modulators of metabotropic glutamate receptor 3” (Vanderbilt University, priority 2014, dated 2017).
Like-named read-outs stand apart in the source and are kept apart here.

Experiments:
rat mGlu3 = rat mGlu3 (Rattus norvegicus (Rat), UniProt P31422); assay: mGlu3 Ca2+ flux assay; assay type: cell-based; conditions: for IC50: NAM potency, decrease of glutamate EC80 response, >30,000 = no measurable activity, >10,000 = no plateau, read-out: rat mGlu3 IC50; for remaining activity at 30 µM: amplitude of response at 30 μM test compound as % of maximal response to glutamate, read-out: rat mGlu3 Glu max (%)
Outline: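 Cells expressing rat mGlu3 were grown overnight at 37° C. under 5% CO2, then loaded with dye. After dye removal they received 20 μL of assay buffer and sat 10 minutes at room temperature. Calcium flux was read on a Hamamatsu FDSS7000, and fluorescence was expressed as fold over basal and normalized to the maximal glutamate response.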

rat mGlu5 = rat mGlu5 (Rattus norvegicus (Rat), UniProt P31424); assay: mGlu5 Ca2+ flux assay; assay type: cell-based; conditions: for Emax at 30 µM: read-out: rat mGlu5 Glu max (%); for Fold selectivity (mGlu3 vs. mGlu5): ratio of rat mGlu5 EC50 or IC50 to rat mGlu3 IC50
Outline: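 Transfected cells grown overnight at 37° C/5% CO2, dye-loaded, then 5 min in assay buffer at RT before Ca2+ flux read on FDSS7000. Fluorescence as F/F0 fold over basal, normalized to maximal glutamate response; EC50 from unconstrained 4-parameter logistic fit, triplicates weighted evenly.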

[1] = PAM, amplitude of response at 30 μM test compound as % of maximal response to glutamate
[2] = read-out: rat mGlu5 EC50 or IC50

Chain of rat mGlu3 (P31422 23-879): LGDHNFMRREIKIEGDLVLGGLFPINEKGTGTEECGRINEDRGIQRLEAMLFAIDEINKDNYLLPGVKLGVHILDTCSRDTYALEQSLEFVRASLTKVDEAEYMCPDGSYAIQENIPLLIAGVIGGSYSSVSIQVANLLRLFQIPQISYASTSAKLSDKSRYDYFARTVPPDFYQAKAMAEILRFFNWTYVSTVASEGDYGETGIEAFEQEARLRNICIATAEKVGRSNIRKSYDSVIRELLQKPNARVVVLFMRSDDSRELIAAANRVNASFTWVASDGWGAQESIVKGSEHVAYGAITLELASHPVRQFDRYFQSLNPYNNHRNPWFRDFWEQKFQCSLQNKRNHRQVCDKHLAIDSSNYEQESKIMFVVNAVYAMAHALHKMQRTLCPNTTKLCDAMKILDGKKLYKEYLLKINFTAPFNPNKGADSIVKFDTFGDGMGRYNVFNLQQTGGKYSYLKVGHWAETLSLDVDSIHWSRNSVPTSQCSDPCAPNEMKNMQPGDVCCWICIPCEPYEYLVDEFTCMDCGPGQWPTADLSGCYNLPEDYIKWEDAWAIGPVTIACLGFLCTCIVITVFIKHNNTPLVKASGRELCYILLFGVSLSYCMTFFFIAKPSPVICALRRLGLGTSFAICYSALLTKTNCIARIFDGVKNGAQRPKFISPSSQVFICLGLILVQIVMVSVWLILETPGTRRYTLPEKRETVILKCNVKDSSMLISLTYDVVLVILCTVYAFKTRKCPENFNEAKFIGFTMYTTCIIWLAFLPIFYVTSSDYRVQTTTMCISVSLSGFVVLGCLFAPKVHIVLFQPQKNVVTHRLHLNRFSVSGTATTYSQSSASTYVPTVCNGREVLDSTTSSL
Chain of rat mGlu5 (P31424 21-1203): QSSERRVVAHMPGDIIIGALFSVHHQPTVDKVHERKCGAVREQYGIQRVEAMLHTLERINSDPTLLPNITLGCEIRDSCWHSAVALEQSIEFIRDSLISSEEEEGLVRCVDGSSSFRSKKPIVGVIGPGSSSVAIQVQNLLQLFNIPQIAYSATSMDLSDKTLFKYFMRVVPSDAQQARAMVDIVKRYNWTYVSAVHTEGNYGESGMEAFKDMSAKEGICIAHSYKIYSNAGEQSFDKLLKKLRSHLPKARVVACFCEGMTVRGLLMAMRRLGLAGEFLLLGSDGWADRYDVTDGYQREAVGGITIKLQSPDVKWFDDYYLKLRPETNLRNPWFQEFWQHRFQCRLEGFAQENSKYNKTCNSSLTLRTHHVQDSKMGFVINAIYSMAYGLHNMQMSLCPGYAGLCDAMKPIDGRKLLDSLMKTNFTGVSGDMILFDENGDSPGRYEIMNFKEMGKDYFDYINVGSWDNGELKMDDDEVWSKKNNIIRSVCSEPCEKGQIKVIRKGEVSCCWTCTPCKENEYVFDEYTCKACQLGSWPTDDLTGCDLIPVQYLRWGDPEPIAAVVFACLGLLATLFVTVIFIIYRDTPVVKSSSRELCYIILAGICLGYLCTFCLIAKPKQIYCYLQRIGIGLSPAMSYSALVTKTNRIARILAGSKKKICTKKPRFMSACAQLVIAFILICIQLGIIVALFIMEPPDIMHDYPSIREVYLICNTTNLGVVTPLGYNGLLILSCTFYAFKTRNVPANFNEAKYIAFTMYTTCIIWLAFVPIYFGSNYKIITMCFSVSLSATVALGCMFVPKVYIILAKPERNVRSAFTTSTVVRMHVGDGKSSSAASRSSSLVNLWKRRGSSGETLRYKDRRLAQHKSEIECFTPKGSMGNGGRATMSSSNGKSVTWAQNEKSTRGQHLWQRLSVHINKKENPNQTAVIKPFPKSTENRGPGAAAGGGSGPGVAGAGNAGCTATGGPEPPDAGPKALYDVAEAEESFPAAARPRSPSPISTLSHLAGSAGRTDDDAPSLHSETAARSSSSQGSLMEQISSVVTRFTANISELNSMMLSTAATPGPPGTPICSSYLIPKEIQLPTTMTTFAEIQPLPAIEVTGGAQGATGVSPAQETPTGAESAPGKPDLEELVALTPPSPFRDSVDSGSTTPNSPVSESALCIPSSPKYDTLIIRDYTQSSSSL

Row | SMILES | IC50 (rat mGlu3) [nM] | remaining activity at 30 µM (rat mGlu3) [%] | IC50 (rat mGlu5; compound noted as NAM or partial antagonist (PAnt) at mGlu5, glutamate EC80, read-out: rat mGlu5 EC50 or IC50) [nM] | Emax at 30 µM (rat mGlu5; compound noted as NAM or partial antagonist (PAnt) at mGlu5, response at 30 μM as % of maximal glutamate response) [%] | Fold selectivity (mGlu3 vs. mGlu5) (rat mGlu5) | Emax at 30 µM (rat mGlu5; [1]) [%] | EC50 (rat mGlu5; [2]) [nM]
1 | C[C@@H]1CN(c2ccc(F)cc2)C(=O)c2cc(CNc3cccc(OC(F)F)c3)nn21 [Compound 54, (R)-2-(((3-(difluoromethoxy)phenyl)amino)methyl)-5-(4-fluorophenyl)-7-methyl-6,7-dihydropyrazolo[1,5-a]pyrazin-4(5H)-one] | 2040 | 3.56 | > 10000 | 36 | >4.9 | – | –
2 | C[C@H]1CN(c2ccc(F)cc2)C(=O)c2cc(CNc3cccc(OC(F)F)c3)nn21 [Compound 55, (S)-2-(((3-(difluoromethoxy)phenyl)amino)methyl)-5-(4-fluorophenyl)-7-methyl-6,7-dihydropyrazolo[1,5-a]pyrazin-4(5H)-one] | 1670 | 1.85 | – | – | >5.9 | 28.8 | > 10000
3 | C[C@@H]1CN(c2ccc(F)cc2)C(=O)c2cc(CNc3ccc(F)cc3)nn21 [Compound 56, (R)-5-(4-fluorophenyl)-2-(((4-fluorophenyl)amino)methyl)-7-methyl-6,7-dihydropyrazolo[1,5-a]pyrazin-4(5H)-one] | 1160 | 2.97 | – | – | >25 | – | > 30000
4 | C[C@H]1CN(c2ccc(F)cc2)C(=O)c2cc(CNc3ccc(F)cc3)nn21 [Compound 57, (S)-5-(4-fluorophenyl)-2-(((4-fluorophenyl)amino)methyl)-7-methyl-6,7-dihydropyrazolo[1,5-a]pyrazin-4(5H)-one] | 2320 | 0.96 | – | – | 2.38 | 56.7 | 5530
5 | Cc1ccc(NCc2cc3n(n2)[C@H](C)CN(c2ccc(F)cc2)C3=O)cc1 [Compound 58, (R)-5-(4-fluorophenyl)-7-methyl-2-((p-tolylamino)methyl)-6,7-dihydropyrazolo[1,5-a]pyrazin-4(5H)-one] | 1830 | 1.27 | – | – | >16 | – | > 30000
6 | Cc1ccc(NCc2cc3n(n2)[C@@H](C)CN(c2ccc(F)cc2)C3=O)cc1 [Compound 59, (S)-5-(4-fluorophenyl)-7-methyl-2-((p-tolylamino)methyl)-6,7-dihydropyrazolo[1,5-a]pyrazin-4(5H)-one] | 1740 | 3.14 | – | – | >5.7 | 48.9 | > 10000
7 | C[C@@H]1CN(c2ccc(F)cc2)C(=O)c2cc(CNc3ccc(Cl)cc3)nn21 [Compound 60, (R)-2-(((4-chlorophenyl)amino)methyl)-5-(4-fluorophenyl)-7-methyl-6,7-dihydropyrazolo[1,5-a]pyrazin-4(5H)-one] | 1250 | 0.56 | – | – | >8.0 | 31.5 | > 10000
8 | C[C@H]1CN(c2ccc(F)cc2)C(=O)c2cc(CNc3ccc(Cl)cc3)nn21 [Compound 61, (S)-2-(((4-chlorophenyl)amino)methyl)-5-(4-fluorophenyl)-7-methyl-6,7-dihydropyrazolo[1,5-a]pyrazin-4(5H)-one] | 1310 | 2.22 | – | – | 4.69 | 80.3 | 6150
9 | COc1ccc(NCc2cc3n(n2)[C@H](C)CN(c2ccc(F)cc2)C3=O)cc1 [Compound 62, (R)-5-(4-fluorophenyl)-2-(((4-methoxyphenyl)amino)methyl)-7-methyl-6,7-dihydropyrazolo[1,5-a]pyrazin-4(5H)-one] | 2990 | 0.79 | – | – | >10 | – | > 30000
10 | COc1ccc(NCc2cc3n(n2)[C@@H](C)CN(c2ccc(F)cc2)C3=O)cc1 [Compound 63, (S)-5-(4-fluorophenyl)-2-(((4-methoxyphenyl)amino)methyl)-7-methyl-6,7-dihydropyrazolo[1,5-a]pyrazin-4(5H)-one] | 8370 | -0.6 | – | – | >3.5 | – | > 30000
